{"source": "patent US20090024021A1", "about": "“Methods and Systems for Using Transcranial Magnetic Stimulation and Functional Brain Mapping for Examining Cortical Sensitivity, Brain Communication, and Effects of Medication” (priority 2002, published 2009)", "system": "left primary motor cortex", "test": "Resting motor threshold (RMT) by TMS with EMG of abductor pollicis brevis", "assay_type": "in vivo, human", "procedure": "Study design: We performed a randomized, double-blind, crossover trial involving two visits at least one week apart (FIG. 8). […] Serum LTG levels, RMTs, and interleaved TMS/phMRI images during both motor and then prefrontal TMS were then gathered for each subject. One week later they received LTG or placebo again, followed by identical RMT and interleaved TMS/phMRI studies.\nGeneral Procedure: After arriving at the laboratory in the early afternoon, baseline RMT was determined and baseline plasma levels of LTG were drawn. They were then given a single oral dose of 325 mg LTG or placebo. They then waited quietly for 3 hours. Three hours after taking the oral pill, RMT was determined and serum plasma levels were again drawn.\nTMS: Focal TMS was delivered by a MAGSTIM Super Rapid stimulator (Magstim Co, Whitland, Dyfed, U.K) and applied through a focal figure-of-eight magnetic coil (each wing 70 mm in diameter). The optimal position of the magnetic coil for eliciting a MEP in the right abductor pollicis brevis (APB) was determined by holding the coil tangential to the scalp, and moving it in small steps over the presumed area of the left primary motor cortex at a slightly suprathreshold stimulus intensity. The coil was always held horizontally with the handle pointing backward and laterally at 45 degrees from the midline. This position was marked with a pen on a reusable latex swimming cap in order to assure constant placement of the coil throughout the visits. Stimulus intensity and threshold values were expressed as percent of the maximal stimulator output.\nResting Motor Threshold (RMT): Surface electromyographic (EMG) was recorded from the APB using 9-mm Ag—AgCl electrodes in a belly-tendon montage. The placement of electrodes on the thumb and hand was marked with a pen for exact re-placement in consecutive visits on the same day. The raw EMG signal was amplified by a factor of 100 gain and band-pass filtered, […] with a High Performance Band pass Filter Model V-7548 (LAB Linc. Co). The EMG was recorded on a G3 Macintosh with MacCRO (version 2.1).\nRMT was determined in the resting APB in 4 steps: In step one and step three, thresholds were approached from a slightly suprathreshold intensity by reducing the stimulus intensity in 1% steps with a 5 sec interval between pulses, whereas in steps two and four, thresholds were approached from a slightly subthreshold intensity by increasing the stimulus intensity. RMT was defined as the first intensity that produced a MEP of greater than 50 μV in 3 out of 6 trials in the resting target muscle. A mean RMT for baseline or after medication was calculated by averaging the four values. Determination of the RMT using this technique usually lasted 30 minutes.\nThe percent change of RMT=100[(post-dose RMT−pre-dose RMT)/pre-dose RMT]. Paired Student's t tests (two tailed) were performed for the percent change of RMT between LTG and placebo. Wilcoxon nonparametric tests were performed for the number of active voxels in the region of interests (ROI) between LTG and placebo. We performed Pearson correlations between the percent change of RMT and the change of active voxel number. Two-way analysis of variance (ANOVA) was performed for % BOLD signal change in the different intensity stimulation and the different medication conditions. All statistical analyses were performed using SPSS 10.0 (Statistical Product and Service Solutions Inc, Chicago Ill.).", "note": "Several values for one entry are separate records, joined by “and”; a condition that tells them apart may be missing. Identical values can stand only once."}
{"molecule": "Nc1nnc(-c2cccc(Cl)c2Cl)c(N)n1", "note": "[LTG, Lamotrigine]", "values": [{"measurement": "RMT Post-3 hours", "setting": "LTG visit, 3 hours after single oral dose of 325 mg LTG, individual subjects 1-12", "result": "75.25% of machine maximum output (Magstim) and 66.25% of machine maximum output (Magstim) and 66.50% of machine maximum output (Magstim) and 99.00% of machine maximum output (Magstim) and 55.25% of machine maximum output (Magstim) and 100.00% of machine maximum output (Magstim) (2×) and 101.00% of machine maximum output (Magstim) (2×) and 64.50% of machine maximum output (Magstim) and 68.25% of machine maximum output (Magstim) and 95.25% of machine maximum output (Magstim)"}, {"measurement": "RMT Post-3 hours, mean", "setting": "LTG visit, 3 hours after single oral dose of 325 mg LTG, mean of 12 subjects", "result": "82.69% of machine maximum output (Magstim)"}, {"measurement": "RMT % Change from baseline", "setting": "LTG visit, post-dose 3 hours vs pre-dose same day, individual subjects 1-12", "result": "8.27% and 28.02% and 7.26% and 30.26% and 1.38% and 3.63% and 26.10% and 19.53% and 8.86% and 15.76% and 12.81% and 16.87%"}, {"measurement": "RMT % Change from baseline, mean", "setting": "LTG visit, post-dose 3 hours vs same day baseline, mean of 12 subjects, placebo 0.6%", "result": 14.9, "unit": "%"}, {"measurement": "TMS resting motor threshold compared with placebo", "setting": "all 12 subjects, day subjects received LTG", "result": "significant increase"}]}
